# Experimental data taken from EP4238553A1, “COMPOSITIONS AND METHODS FOR DELIVERING CLOFOCTOL” (priority 2022, dated 2023).
# How the values were obtained:
# [1] = characterization of aerosol particles by laser light scattering (Malvern Mastersizer X); type: physicochemical; conditions: air flow 20L/min
# Method: The "median diameter" (D(v;0.5)) of an aerosol refers to the diameter for which half the particulate mass of the aerosol consists of particles with a diameter larger than the median diameter and half by particles with a diameter smaller than the median diameter. The median diameter is measured by laser light scattering using for example a Malvern Mastersizer X or any equivalent apparatus working on the same principle of laser light scattering.
# The "span" of a volume-based size distribution is defined by Span = (D(v;0.9) - D(v;0.1)) / D(v;0.5) and gives an indication of how far the 10 percent and 90 percent points are apart, normalized by the midpoint.
# The "volume concentration" is the volume of particles reported to the total volume of the aerosol expressed as a percentage. The volume concentration is measured by laser light scattering using for example a Malvern Mastersizer X or any equivalent apparatus working on the same principle of laser light scattering.
# Solutions containing 10 mg/g or 20 mg/g of clofoctol in various solvents were prepared. Aerosols were produced using a TAG (Vaporesso swag 2 with a coil resistance of 0.3 ohms) at different powers. The flow of aerosol was generated using an air flow of 20L/min. A certain volume of emitted aerosol was passed through the laser beam of a granulometer, Mastersizer X from Malvern.
# [2] = aerosol drug mass density (TAG aerosol trapped on filter, LC-MS); type: physicochemical; conditions: airflow 34 L per minute; for Collected mass of clofoctol in the trap: 1.416 L aerosol trapped
# Method: The term "aerosol" refers to a suspension of fine solid particles or liquid droplets in a gas. The expression "(aerosol) drug mass density" refers to the mass of clofoctol per unit volume of aerosol. It is calculated by measuring the quantity of clofoctol in a determined volume of aerosol beforehand trapped.
# (§1) The purity of a clofoctol-containing aerosol, and quantitation of clofoctol in this aerosol was determined using a method that involves forming the aerosol in a device through which an air flow is maintained, generally at a rate between 1 and 180 L/min. The gas flow carries the aerosol into one or more traps. After extraction from the trap, the trapped components from the aerosol are subjected to an analytical technique, such as liquid chromatography, that permits a determination of composition and purity. The liquid chromatography discussed above contains a detection system (i.e., detector). Such detection systems are well known in the art and include, for example, UV detectors and mass spectrometry detectors. Liquid chromatography-mass spectrometry is the preferred analytical technique.
# Solutions containing 20 mg/g of clofoctol in various solvents were prepared. Aerosols were produced using a TAG (Vaporesso swag 2 with a coil resistance of 0.3 ohms) at different powers and an airflow of 34 L per minute. 1.416 L of emitted aerosol was trapped on a plastic filter. Clofoctol was then extracted from the filter and dosed by LC-MS to determine the drug mass density.
# physchem = type: physicochemical; conditions: for solubility at 48 h / solubility at 120 h: organic solvent or mixture
# Method: Solutions of clofoctol were prepared in different solvents: 100% PG, 85/15 PG/Gly, 70/30 PG/Gly, 50/50 PG/Gly. Solutions were sonicated then incubated at 65°C for 30 min, until complete dissolution of clofoctol. Then, the samples were incubated at RT under stirring for different times. For collection before analysis after determined incubation times, the solutions were centrifuged, then the supernatants were collected and diluted before LC-MS/MS analysis for clofoctol quantitation in samples.
# [3] = clofoctol purity in the aerosol after thermal aerosol generation (LC-UV-MS); type: physicochemical; conditions: for Mean purity: mean of puffs 1 and 2
# Method: as §1
# Solutions containing 20 mg/g of clofoctol in various solvents were prepared. Aerosols were produced using a TAG (Vaporesso swag 2 with a coil resistance of 0.3 ohms) at different powers. The flow of aerosol was generated using an air flow of 20 L/min. One or two successive puffs of 2.5s each was (were) done for each condition. For each puff, a certain volume of emitted aerosol was trapped on a plastic filter. Clofoctol was then extracted from the filter and analysed by LC-UV-MS.
# in vivo = experiment: in vivo; set-up: species or system Mice; conditions: mouse, inhaled or intranasal
# Method: Mice (Charles River, Female CD-1, 20-23 g) were permitted water and food ad libitum during the experiment. Clofoctol was administrated by Nose-Only inhalation in a homemade inhalation chamber in part inspired by a previous described apparatus (ref. 6). Animals were acclimated to restraint during a week before the experiment started. Animals were exposed to an aerosol generated (using a TAG connected to the chamber: Vaporesso swag 2 with a coil resistance of 0.3 ohms) from a solution of 20 mg/g of clofoctol ([…]/Glycerin, 85/15) for a period of 15 min with a puff of 4.5 s every minute (with a power of 30W).
# Blood and lungs (left lung) were sampled 5, 10, 15, 30, 60 and 120 minutes after the end of a single inhalation period (2 mice/sampling time). The blood was sampled in tubes with Lithium Heparin on ice and then the plasma was separated from the red cells by centrifugation and frozen (-80°C).
# A known mass (approximately 15mg, weighed beforehand) of each lung was placed into a 'safe lock' microtube (2 mL). […]
# The unknown lung concentrations of clofoctol were calculated from a calibration line produced in the same matrix (naive lung from 'vehicle' animals) and reprocessed in the same way as the samples (homogenization in ethanol).
# [4] = aerosol from 10 mg/g CFT in 85/15 PG/Gly, power 30 W
# [5] = aerosol from 10 mg/g CFT in 85/15 PG/Gly, power 45 W
# [6] = aerosol from 10 mg/g CFT in 85/15 PG/Gly, power 60 W
# [7] = aerosol from 20 mg/g CFT in 70/30 PG/Gly, power 30 W
# [8] = aerosol from 20 mg/g CFT in 85/15 PG/Gly, power 30 W
# [9] = aerosol from 20 mg/g CFT in 100% PG, power 30 W
# [10] = 20 mg/g clofoctol in 70/30 PG/Gly, TAG power 30 W
# [11] = 20 mg/g clofoctol in 85/15 PG/Gly, TAG power 30 W
# [12] = 20 mg/g clofoctol in 85/15 PG/Gly, TAG power 50 W
# [13] = 20 mg/g clofoctol in 85/15 PG/Gly, TAG power 80 W
# [14] = 20 mg/g clofoctol in 100% PG, TAG power 30 W
smiles,measurement,setting,value
"CC(C)(C)CC(C)(C)c1ccc(O)c(Cc2ccc(Cl)cc2Cl)c1 [clofoctol, 2-[(2,4-dichlorophenyl)methyl]-4-(2,4,4-trimethylpentan-2-yl)phenol]",Mean diameter,[1]; [4],2.45 µm
same,Median diameter,[1]; [4],2.42 µm
same,Sauter diameter,[1]; [4],2.34 µm
same,Span,[1]; [4],0.519
same,Volume conc.,[1]; [4],0.0052%
same,Mean diameter,[1]; [5],2.40 µm
same,Median diameter,[1]; [5],2.38 µm
same,Sauter diameter,[1]; [5],2.30 µm
same,Span,[1]; [5],0.523
same,Volume conc.,[1]; [5],0.0027%
same,Mean diameter,[1]; [6],2.63 µm
same,Median diameter,[1]; [6],2.59 µm
same,Sauter diameter,[1]; [6],2.46 µm
same,Span,[1]; [6],0.635
same,Volume conc.,[1]; [6],0.0018%
same,Mean diameter,[1]; [7],2.89 µm
same,Median diameter,[1]; [7],2.87 µm
same,Sauter diameter,[1]; [7],2.76 µm
same,Span,[1]; [7],0.551
same,Volume conc.,[1]; [7],0.0020%
same,Mean diameter,[1]; [8],2.41 µm
same,Median diameter,[1]; [8],2.38 µm
same,Sauter diameter,[1]; [8],2.30 µm
same,Span,[1]; [8],0.543
same,Volume conc.,[1]; [8],0.0016%
same,Mean diameter,[1]; [9],2.78 µm
same,Median diameter,[1]; [9],2.75 µm
same,Sauter diameter,[1]; [9],2.66 µm
same,Span,[1]; [9],0.521
same,Volume conc.,[1]; [9],0.0038%
same,Drug mass density,[2]; [10],0.091 mg/L
same,Collected mass of clofoctol in the trap,[2]; [10],128.3 µg
same,Drug mass density,[2]; [11],0.096 mg/L
same,Collected mass of clofoctol in the trap,[2]; [11],135.8 µg
same,Drug mass density,[2]; [12],0.099 mg/L
same,Collected mass of clofoctol in the trap,[2]; [12],141.1 µg
same,Drug mass density,[2]; [13],0.071 mg/L
same,Collected mass of clofoctol in the trap,[2]; [13],100.5 µg
same,Drug mass density,[2]; [14],0.159 mg/L
same,Collected mass of clofoctol in the trap,[2]; [14],225.6 µg
same,solubility at 48 h,physchem; 50/50 pg/gly,7.9 mM
same,solubility at 120 h,physchem; 50/50 pg/gly,6.7 mM
same,solubility at 48 h,physchem; 70/30 pg/gly,29.8 mM
same,solubility at 120 h,physchem; 70/30 pg/gly,28.1 mM
same,solubility at 48 h,physchem; 85/15 pg/gly,504 mM
same,solubility at 120 h,physchem; 85/15 pg/gly,147 mM
same,solubility at 48 h,physchem; 100% pg,489 mM
same,solubility at 120 h,physchem; 100% pg,441 mM
same,maximum concentration achieved,physchem; 7200 min,about 15 % by weight
same,Mean purity,"[3]; aerosol from 20 mg/g clofoctol in 70/30 PG/Gly, power 30 W",100.0%
same,Purity CFT,"[3]; aerosol from 20 mg/g clofoctol in 70/30 PG/Gly, power 30 W, puff number 1",100.0%
same,Purity CFT,"[3]; aerosol from 20 mg/g clofoctol in 70/30 PG/Gly, power 30 W, puff number 2",100.0%
same,Mean purity,"[3]; aerosol from 20 mg/g clofoctol in 70/30 PG/Gly, power 80 W",91.0%
same,Purity CFT,"[3]; aerosol from 20 mg/g clofoctol in 70/30 PG/Gly, power 80 W, puff number 1",91.4%
same,Purity CFT,"[3]; aerosol from 20 mg/g clofoctol in 70/30 PG/Gly, power 80 W, puff number 2",90.6%
same,Mean purity,"[3]; aerosol from 20 mg/g clofoctol in 100% PG, power 30 W",100.0%
same,Purity CFT,"[3]; aerosol from 20 mg/g clofoctol in 100% PG, power 30 W, puff number 1",100.0%
same,Purity CFT,"[3]; aerosol from 20 mg/g clofoctol in 100% PG, power 30 W, puff number 2",100.0%
same,Mean purity,"[3]; aerosol from 20 mg/g clofoctol in 100% PG, power 80 W",87.4%
same,Purity CFT,"[3]; aerosol from 20 mg/g clofoctol in 100% PG, power 80 W, puff number 1",92.0%
same,Purity CFT,"[3]; aerosol from 20 mg/g clofoctol in 100% PG, power 80 W, puff number 2",82.7%
same,Tmax,in vivo,≤ 5 min
